Data on three compounds can be found in patent publication EP4755886A1 (Chengdu Chipscreen Pharmaceutical Ltd., priority 2023, dated 2025).

SMILES strings stand for the structures. Like-named read-outs stand apart in the source and are kept apart here.

A short description of data set [1]: PK experiment in mice. As to conditions: female, BALB/c, mouse, plasma, po, 10 mg/kg.
Data set [2] has as its target T1, CYP450 enzyme 3A4 (Homo sapiens, UniProt P08684).
T1 construct: Liver microsomes (purchased from BIOIVT, Cat. No.: X008070); tissue BIOIVT X008070; host or cells: human liver microsomes
The experiment in a line: CYP inhibition test in human liver microsomes. As to conditions: human liver microsomes 0.1 mg/mL. It is filed as in vitro ADME. How it is done: (§1) Experimental materials: human liver microsomes (purchased from BIOIVT);
(§2) PBS: 0.1 M KH2PO4 and K2HPO4 buffers, pH 7.4.
MgCl2: a certain amount of MgCl2 was weighed out and prepared into a 20 mM MgCl2 solution with PBS.
NADPH (Chinese name: reduced nicotinamide adenine dinucleotide phosphate, purchased from Sigma, Cat. No.: 481973-500 mg): a certain amount of NADPH was weighed out and a 5 mM solution of NADPH was prepared with a 20 mM MgCl2 solution, and the final incubation concentration was 1 mM.
Compounds: 3 mM, 1 mM, 0.3 mM, 0.1 mM, 0.03 mM, 0.01 mM, and 0 mM solutions of the test compounds were prepared with a DMSO-methanol (v:v = 1:9) solution, and the final incubation concentrations were 30 µM, 10 µM, 3 µM, 1 µM, 0.3 µM, 0.1 µM, and 0 µM. 30 µM, 10 µM, 3 µM, 1 µM, 0.3 µM, and 0 µM solutions of the positive compound (ketoconazole) were prepared with a DMSO-methanol (v:v = 1:9) solution, and the final incubation concentrations were 0.3 µM, 0.1 µM, 0.03 µM, 0.01 µM, 0.003 µM, and 0 µM.
Substrate working solutions: 200 µM and 15 µM solutions of substrate working solutions (testosterone and midazolam) were prepared with PBS, separately, and the final incubation concentrations were 40 µM and 3 µM.
Liver microsomes (purchased from BIOIVT, Cat. No.: X008070): the liver microsomes were diluted to […] with PBS, and the final incubation concentration was 0.1 mg/mL.
The prepared test compounds or positive compounds were added to a 96-well plate, and then the prepared human liver microsome working solution and substrate working solution were added. The mixture was mixed well. The mixture was pre-incubated in a thermostat incubator at 37 °C for 5 min, and then the prepared NADPH was added to start the reaction. The mixture was incubated for 5 min or 10 min. After the incubation was completed, a pre-cooled acetonitrile solution containing an internal standard was added to terminate the reaction. After protein precipitation, the mixture was vortexed for 5 min with shaking and then centrifuged at 4000 rpm for 10 min. The supernatant was collected and added to the 96-well plate. The content (peak concentration ratio) of the metabolites of the substrate was determined by an LC-MS/MS method. The residual activity and the half maximal inhibitory concentration (IC50) of the enzyme were calculated based on the detected content.
Percentage of remaining enzyme activity: The activity of each subtype of CYP450 enzyme was expressed as the amount of metabolite produced, and the percentage of remaining enzyme activity was calculated as follows: [formula]
The concentrations of the test substances and the corresponding residual activity percentages were fitted using a nonlinear model of Excel software, and the concentration of the test substances at which 50% inhibition of metabolite production was achieved was the IC50 value.
(In general: Microsomes from liver hold many membrane-bound enzymes, among them those of drug oxidation.)

Data set [3] relates to wild-type HCT-116 cells. The experiment in a line: Cell proliferation (MTS), wild-type HCT-116. In kind it is cell-based. Particulars: Homo sapiens, 240 h; wild-type HCT-116, 10 days with compound, MTS reading; read-out: IC50 HCT116 WT. Put shortly: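 Wild-type HCT-116 cells were seeded at 100 cells/well in McCoy's 5A/10% FBS. From day 1 they were treated with compound in 3-fold dilutions (initial 20 µM, 8 points) for 10 days at 37° C. Proliferation was read by MTS on day 11, and IC50 was obtained from a four-parameter logistic fit.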

A short description of data set [4]: Human liver microsome stability. In kind it is in vitro ADME. As to conditions: pH 7.4; human liver microsomes 0.5 mg/mL, compound 1 µM, NADPH 1 mM, 37 °C. The procedure:
as §1, §2
MgCl2: a certain amount of MgCl2 was weighed out and prepared into a 16 mM MgCl2 solution with PBS.
NADPH (Chinese name: reduced nicotinamide adenine dinucleotide phosphate, purchased from Sigma, Cat. No.: 481973-500 mg): a certain amount of NADPH was weighed out and a 4 mM solution of NADPH was prepared with a 16 mM MgCl2 solution, and the final incubation concentration was 1 mM.
Compounds: 4 µM solutions of the test compounds and positive compounds were prepared with PBS, and the final incubation concentration was 1 µM.
Liver microsomes (purchased from BIOIVT, Cat. No.: X008070): the liver microsomes were diluted to […] with PBS, and the final incubation concentration was 0.5 mg/mL.
The prepared test compound or positive compound was added to a test tube, and then the prepared NADPH was added. The mixture was mixed well. The mixture was pre-incubated in a thermostat incubator at 220 rpm at 37 °C for 5 min, and the prepared liver microsomes were added to start the reaction. All steps were performed in replicate wells. At 0 min, 15 min, 30 min, 45 min, and 60 min, a certain volume of glacial acetonitrile solution containing an internal standard was added to the corresponding tube to precipitate the protein. The mixture was vortexed for 5 min with shaking, and then centrifuged at 4000 rpm for 10 min. […] The samples were analyzed by LC-MS/MS.
The concentrations (peak area ratios) of the example compounds were determined by LC-MS/MS. Rate constants were obtained by plotting "Ln (residual amount of compound %)" versus "incubation time" in Excel, thereby calculating the half-lives and intrinsic clearances of the drugs and providing a basis for the prediction of the in-vivo clearance.
[formula] CLH = CLint × fu × Qh /(CLint×fu+Qh) [formula]
Stability in human liver microsomes

In data set [5] the test system is MTAP^-/- HCT-116 cells. The experiment in a line: Cell proliferation (MTS), MTAP-/- HCT-116. In kind it is cell-based, human. Particulars: for Selectivity: HCT116 WT IC50 relative to HCT116 MTAP-/- IC50; for IC50: Homo sapiens, 240 h, MTAP-/- HCT-116, 10 days with compound, MTS reading, read-out: IC50 HCT116 MTAP-/-. An outline of the steps: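 MTAP-/- (CRISPR/Cas9 biallelic knockout) or wild-type HCT-116 cells seeded at 100 cells/well, treated next day with 8-point 3-fold dilutions (top 20 µM) for 10 days at 37 °C, 5% CO2. Viability read by MTS; IC50 from four-parameter logistic fit of inhibition rate vs log concentration.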

A short description of data set [6]: in vivo. Particulars: mouse, po, 10 mg/kg.

T1 sequence (P08684 whole entry): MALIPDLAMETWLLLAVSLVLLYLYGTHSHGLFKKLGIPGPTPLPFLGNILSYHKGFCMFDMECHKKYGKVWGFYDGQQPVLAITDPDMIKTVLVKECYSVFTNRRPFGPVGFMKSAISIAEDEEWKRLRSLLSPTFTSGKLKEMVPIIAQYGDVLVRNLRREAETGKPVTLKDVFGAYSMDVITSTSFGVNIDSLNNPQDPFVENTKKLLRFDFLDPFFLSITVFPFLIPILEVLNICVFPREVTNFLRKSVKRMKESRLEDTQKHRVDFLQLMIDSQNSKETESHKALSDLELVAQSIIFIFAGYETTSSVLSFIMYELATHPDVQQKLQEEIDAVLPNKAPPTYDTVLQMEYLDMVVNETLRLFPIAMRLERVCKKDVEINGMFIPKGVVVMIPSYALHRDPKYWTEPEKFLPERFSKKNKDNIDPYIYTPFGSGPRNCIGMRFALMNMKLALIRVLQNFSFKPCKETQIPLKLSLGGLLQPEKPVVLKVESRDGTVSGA

In general, AUC(0-t) refers to the area under the concentration-time curve up to a stated or last time point. As usually defined, the Cmax is the maximum level reached in the sampled fluid or tissue. As a reminder, the half-life is how long it takes for the measured level to halve. A lower half-life goes with rapid decline. `CN(C(=O)c1cc2c3c(c(N)nc2cc1Cl)COC3)[C@@H]1COc2cc(C#Cc3cnn(C)c3)ccc21` [Compound 40A, (S)-4-amino-7-chloro-N-methyl-N-(6-((1-methyl-1H-pyrazol-4-yl)ethynyl)-2,3-dihydrobenzofuran-3-yl)-1,3-dihydrofuro[3,4-c]quinoline-8-carboxamide] yielded an AUC(0-t) in data set [1] of 10100 ± 3500 ng·h/mL. The same compound had a Cmax in data set [1] of 793 ± 28 ng/mL. Besides, the IC50 in data set [2] (substrate midazolam 3 µM, read-out: IC50 3A4-Midazolam) is greater than 30000 nM; in data set [2] (substrate testosterone 40 µM, read-out: IC50 3A4-Testosterone) it was greater than 30000 nM; in data set [3], 483 nM; in data set [5] it was 4.6 nM. In data set [4], this compound came in with a half-life at 1 µM of 1.05 h. For the same compound, the Selectivity in data set [5] is given as 105.

In data set [6], `[2H]C([2H])([2H])n1cc(C#Cc2ccc3c(c2)OC[C@H]3N(C)C(=O)c2cc3c(cc2F)nc(N)c2cnn(C)c23)cn1` [Compound 82A, (S)-4-amino-7-fluoro-N,1-dimethyl-N-(6-((1-(methyl-D3)-1H-pyrazol-4-yl)ethynyl)-2,3-dihydrobenzofuran-3-yl)-1H-pyrazolo[4,3-c]quinoline-8-carboxamide] displayed an AUC(0-t) of 14100 ± 4740 ng·h/mL and a Cmax of 1430 ± 195 ng/mL. The IC50 in data set [3] was 196 nM. Moreover, in data set [5], the Selectivity is on record as 75 and the IC50 came out at 2.6 nM.

On to `[2H]C([2H])([2H])N(C(=O)c1cc2c3c(c(N)nc2cc1Cl)COC3)[C@@H]1COc2cc(C#Cc3cnn(C4CC4)c3)ccc21` [Compound 86A, (S)-4-amino-7-chloro-N-(6-((1-cyclopropyl-1H-pyrazol-4-yl)ethynyl)-2,3-dihydrobenzofuran-3-yl)-N-(methyl-D3)-1,3-dihydrofuro[3,4-c]quinoline-8-carboxamide], for which, in data set [6], the AUC(0-t) was found to be 15300 ± 2940 ng·h/mL and the Cmax was found to be 1480 ± 187 ng/mL. Moreover, the IC50 in data set [3] turned out to be 1080 nM. In data set [5], the Selectivity came to 124 and the IC50 came to 8.7 nM.
